Results on 12 compounds are retold here after ChEMBL document CHEMBL1137842, “Fluorinated dihydroquinolines as potent n-NOS inhibitors” (Bioorg Med Chem Lett, 2004).

Data set [1] can be described thus: pKa value by photometric titration. The data set is classed as physicochemical.
The target in data set [2] is Nitric oxide synthase, inducible (Homo sapiens, UniProt P35228). Put plainly: Inhibition of human inducible nitric oxide synthase.
The next data set concerns the target T1, Nitric oxide synthase 3 (Homo sapiens, UniProt P29474).
T1 sequence (P29474 whole entry): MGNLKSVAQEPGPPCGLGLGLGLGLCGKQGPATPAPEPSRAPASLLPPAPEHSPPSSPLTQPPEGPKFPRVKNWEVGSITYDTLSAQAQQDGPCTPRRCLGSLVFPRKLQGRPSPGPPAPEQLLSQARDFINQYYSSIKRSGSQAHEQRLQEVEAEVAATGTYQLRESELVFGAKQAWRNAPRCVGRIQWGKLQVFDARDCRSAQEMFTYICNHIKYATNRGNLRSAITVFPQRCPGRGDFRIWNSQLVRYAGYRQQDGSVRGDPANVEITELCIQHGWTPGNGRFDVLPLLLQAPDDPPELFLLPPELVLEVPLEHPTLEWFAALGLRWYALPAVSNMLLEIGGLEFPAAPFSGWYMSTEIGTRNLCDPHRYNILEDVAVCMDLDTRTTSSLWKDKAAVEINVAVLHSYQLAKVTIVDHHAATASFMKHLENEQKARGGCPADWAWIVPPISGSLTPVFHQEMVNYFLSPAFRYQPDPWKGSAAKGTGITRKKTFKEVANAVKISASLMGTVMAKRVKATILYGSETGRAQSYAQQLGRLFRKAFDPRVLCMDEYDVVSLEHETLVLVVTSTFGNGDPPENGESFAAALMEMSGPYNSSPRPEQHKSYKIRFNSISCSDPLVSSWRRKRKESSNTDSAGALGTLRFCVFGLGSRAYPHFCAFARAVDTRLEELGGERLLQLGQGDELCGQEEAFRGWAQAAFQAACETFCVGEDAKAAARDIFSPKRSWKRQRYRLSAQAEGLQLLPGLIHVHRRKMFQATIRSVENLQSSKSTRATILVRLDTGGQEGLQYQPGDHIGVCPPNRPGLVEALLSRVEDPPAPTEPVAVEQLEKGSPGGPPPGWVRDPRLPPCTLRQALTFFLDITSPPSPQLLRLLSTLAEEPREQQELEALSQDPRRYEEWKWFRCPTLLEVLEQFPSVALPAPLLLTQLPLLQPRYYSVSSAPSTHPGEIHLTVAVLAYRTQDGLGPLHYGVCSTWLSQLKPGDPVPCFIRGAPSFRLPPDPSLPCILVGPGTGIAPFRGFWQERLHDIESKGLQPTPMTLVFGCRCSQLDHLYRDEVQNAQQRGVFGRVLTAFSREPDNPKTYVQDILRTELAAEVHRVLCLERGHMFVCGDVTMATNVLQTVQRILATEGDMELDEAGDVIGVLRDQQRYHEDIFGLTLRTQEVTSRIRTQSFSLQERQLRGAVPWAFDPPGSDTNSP
Description: Inhibition of human endothelial nitric oxide synthase.

The target in the next data set is Nitric oxide synthase 1 (Homo sapiens, UniProt P29475). Put plainly: Inhibition of human neuronal nitric oxide synthase.
Sequence of Nitric oxide synthase 1 (P29475 whole entry): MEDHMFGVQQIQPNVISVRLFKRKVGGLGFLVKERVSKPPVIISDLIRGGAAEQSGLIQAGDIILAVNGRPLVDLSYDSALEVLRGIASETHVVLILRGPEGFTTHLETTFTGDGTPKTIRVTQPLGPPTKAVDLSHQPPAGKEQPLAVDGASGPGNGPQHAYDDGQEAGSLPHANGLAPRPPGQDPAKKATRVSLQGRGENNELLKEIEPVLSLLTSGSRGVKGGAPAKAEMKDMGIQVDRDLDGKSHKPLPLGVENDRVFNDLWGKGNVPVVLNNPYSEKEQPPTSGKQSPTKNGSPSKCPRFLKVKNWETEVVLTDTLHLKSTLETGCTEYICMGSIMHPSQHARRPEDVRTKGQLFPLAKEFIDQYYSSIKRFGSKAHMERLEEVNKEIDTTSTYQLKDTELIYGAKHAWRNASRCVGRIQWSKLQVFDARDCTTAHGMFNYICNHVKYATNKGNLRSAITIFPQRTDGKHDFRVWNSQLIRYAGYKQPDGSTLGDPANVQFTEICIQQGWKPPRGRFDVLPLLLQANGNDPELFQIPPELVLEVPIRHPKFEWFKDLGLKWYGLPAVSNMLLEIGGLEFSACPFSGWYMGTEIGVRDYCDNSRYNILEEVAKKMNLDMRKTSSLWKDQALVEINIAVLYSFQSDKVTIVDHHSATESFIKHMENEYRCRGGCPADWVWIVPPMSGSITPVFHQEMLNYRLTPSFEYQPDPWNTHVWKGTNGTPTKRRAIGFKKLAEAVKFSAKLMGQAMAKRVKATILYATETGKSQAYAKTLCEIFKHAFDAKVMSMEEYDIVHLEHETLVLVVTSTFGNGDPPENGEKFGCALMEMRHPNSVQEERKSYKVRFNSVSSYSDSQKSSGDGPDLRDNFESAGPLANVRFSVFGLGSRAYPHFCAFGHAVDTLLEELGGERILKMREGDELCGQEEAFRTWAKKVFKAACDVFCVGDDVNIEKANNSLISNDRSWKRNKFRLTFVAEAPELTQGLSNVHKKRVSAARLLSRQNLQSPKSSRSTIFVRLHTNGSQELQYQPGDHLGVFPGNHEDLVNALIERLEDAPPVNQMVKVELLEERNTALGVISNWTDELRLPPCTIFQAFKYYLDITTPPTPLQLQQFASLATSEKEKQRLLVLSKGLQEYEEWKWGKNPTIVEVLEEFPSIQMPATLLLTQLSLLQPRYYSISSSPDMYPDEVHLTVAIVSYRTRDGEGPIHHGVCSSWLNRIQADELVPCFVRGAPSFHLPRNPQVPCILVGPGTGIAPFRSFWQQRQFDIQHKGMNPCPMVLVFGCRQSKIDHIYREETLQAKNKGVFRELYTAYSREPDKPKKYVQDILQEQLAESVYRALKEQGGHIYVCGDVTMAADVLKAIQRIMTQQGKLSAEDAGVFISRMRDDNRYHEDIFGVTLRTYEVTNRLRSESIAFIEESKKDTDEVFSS

Sequence of Nitric oxide synthase, inducible (P35228 whole entry): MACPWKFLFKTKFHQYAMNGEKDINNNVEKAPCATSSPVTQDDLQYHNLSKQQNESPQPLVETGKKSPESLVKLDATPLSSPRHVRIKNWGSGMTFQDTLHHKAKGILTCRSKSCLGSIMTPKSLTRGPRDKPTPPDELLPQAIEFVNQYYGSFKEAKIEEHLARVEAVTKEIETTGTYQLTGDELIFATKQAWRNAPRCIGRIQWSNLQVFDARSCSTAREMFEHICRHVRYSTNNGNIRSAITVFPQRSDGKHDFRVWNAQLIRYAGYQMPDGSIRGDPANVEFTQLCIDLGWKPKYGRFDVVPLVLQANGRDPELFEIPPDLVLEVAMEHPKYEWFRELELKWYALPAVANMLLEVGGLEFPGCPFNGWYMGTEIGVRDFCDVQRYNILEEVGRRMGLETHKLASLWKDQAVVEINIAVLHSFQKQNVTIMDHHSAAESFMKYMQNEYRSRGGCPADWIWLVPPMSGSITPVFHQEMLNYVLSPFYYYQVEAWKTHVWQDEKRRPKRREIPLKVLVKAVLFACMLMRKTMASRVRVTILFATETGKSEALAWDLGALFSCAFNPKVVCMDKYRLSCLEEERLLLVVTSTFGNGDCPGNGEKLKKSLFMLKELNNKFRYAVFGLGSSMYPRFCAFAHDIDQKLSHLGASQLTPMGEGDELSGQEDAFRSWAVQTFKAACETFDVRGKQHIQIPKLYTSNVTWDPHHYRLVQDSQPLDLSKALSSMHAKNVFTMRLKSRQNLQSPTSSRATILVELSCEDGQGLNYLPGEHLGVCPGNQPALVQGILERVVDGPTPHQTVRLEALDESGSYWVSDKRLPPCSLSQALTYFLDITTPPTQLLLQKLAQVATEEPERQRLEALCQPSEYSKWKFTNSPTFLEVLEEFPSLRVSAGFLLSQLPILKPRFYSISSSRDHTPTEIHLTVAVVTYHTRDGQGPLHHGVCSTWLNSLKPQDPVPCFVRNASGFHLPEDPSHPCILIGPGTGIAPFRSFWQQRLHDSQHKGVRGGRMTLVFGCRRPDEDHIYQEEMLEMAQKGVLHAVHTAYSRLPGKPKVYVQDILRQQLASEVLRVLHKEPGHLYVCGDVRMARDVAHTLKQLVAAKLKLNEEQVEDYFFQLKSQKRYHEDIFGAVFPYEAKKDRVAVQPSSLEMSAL

Take `NC1=Nc2cc(CCCNCc3cccc(Cl)c3)ccc2[C@H]2CCC[C@@]12F`: the pKa (in general, the negative logarithm of the acid dissociation constant) in data set [1] turned out to be 8. The values for the IC50 (in data set [2]; on Nitric oxide synthase 3; against Nitric oxide synthase 1) were 2200 nM, 38000 nM and 310 nM, respectively.
On the same counts, the results for `CNCCc1ccc2c(c1)N=C(N)[C@]1(F)CCC[C@H]21` are 7.9, 1900 nM, 79000 nM and 390 nM.
For `NC1=Nc2cc(CCCNCc3cccc(Cl)c3)ccc2[C@H]2CCC[C@@H]12`, the pKa in data set [1] is 9.9.
As to `NC1=Nc2ccc(Cl)cc2[C@H]2CCC[C@@]12F`, the pKa in data set [1] stood at 7.6. The results for the half-maximal inhibitory concentration (IC50) (in data set [2]; on Nitric oxide synthase 3; against Nitric oxide synthase 1) were 8100 nM, 14000 nM and 290 nM, respectively.
Consider `NC1=Nc2ccc(Cl)cc2[C@H]2CCC[C@@H]12`, for which the pKa in data set [1] came out at 9.4.
With `NC1=Nc2c(F)cc(Cl)cc2[C@H]2CCC[C@@H]12`, the pKa in data set [1] was 8.2. Further, the results for the 50% inhibitory concentration (IC50) (in data set [2]; at Nitric oxide synthase 3; against Nitric oxide synthase 1) were 8100 nM, 14000 nM and 290 nM, respectively.
On to `NC1=Nc2c(F)cccc2[C@H]2CCC[C@@H]12`, for which the pKa in data set [1] was 8.5.
Turning to `NC1=Nc2ccccc2[C@H]2CCC[C@@]12F`, in data set [1], the pKa was 7.9. For the same compound, the IC50 (usually the concentration at which inhibition is half-maximal) amounted to 2100 nM in data set [2], 2700 nM on Nitric oxide synthase 3 and 100 nM at Nitric oxide synthase 1.
As to `NC1=Nc2c(F)cccc2[C@H]2CCC[C@@]12F`, the pKa in data set [1] is 6.6. Also, the IC50 in data set [2] came to 25000 nM; against Nitric oxide synthase 3 it was 22000 nM; at Nitric oxide synthase 1, 590 nM.
As for `CNCc1ccc2c(c1)N=C(N)[C@]1(F)CCC[C@H]21`, the values for the IC50 (in data set [2]; on Nitric oxide synthase 3; against Nitric oxide synthase 1) were 1400 nM, 66000 nM and 660 nM, respectively.
In turn, `NC1=Nc2ccccc2[C@H]2CCC[C@@H]12` came in with a pKa in data set [1] of 9.7.
`NC1=Nc2c(ccc(F)c2F)[C@H]2CCC[C@@H]12` returned a pKa in data set [1] of 8.
